Results: PMC9933483, “Tail-Approach-Based Design and Synthesis of Coumarin-Monoterpenes as Carbonic Anhydrase Inhibitors and Anticancer Agents” (ACS Omega, 2023)

Columns and labels:
HT-29 cell line = experiment: Cell cytotoxicity, MTT assay; type: cell-based, human; details: Homo sapiens, HT-29; MTT, 24 h
MCF-7 cell line = experiment: Cell cytotoxicity, MTT assay; type: cell-based, human
PC-3 cell line = experiment: Cell cytotoxicity, MTT assay; type: cell-based; details: Homo sapiens, 24 h
HEK293T cell line = experiment: Cell cytotoxicity, MTT assay; type: cell-based; details: Homo sapiens, HEK-293T, 24 h, healthy cell line
hCA IX = hCA IX (Homo sapiens, UniProt Q16790); experiment: biochemical

SMILES	IC50 (HT-29 cell line) [µM]	IC50 (MCF-7 cell line; Homo sapiens, MCF7, 24 h) [µM]	IC50 (PC-3 cell line) [µM]	IC50 (HEK293T cell line) [µM]	Ki (hCA IX) [µM]	melting point [°C]	IC50 (MCF-7 cell line; 24 h) [µM]
COc1cccc2c1C(=O)c1c(O)c3c(c(O)c1C2=O)C[C@@](O)(C(=O)CO)C[C@@H]3O[C@H]1C[C@H](N)[C@H](O)[C@H](C)O1 [Dox, doxorubicin, reference compound]	7.41 ± 1.9	0.64 ± 0.11	4.48 ± 1.08	2.03 ± 0.12	–	–	–
Cc1ccc(C(C)C)c(OCCCCCCCCCOc2ccc3ccc(=O)oc3c2)c1 [Compound 49, 7-((9-(2-Isopropyl-5-methylphenoxy)nonyl)oxy)-2H-chromen-2-one]	> 200	–	–	–	0.123	–	–
CC1CCC(C(C)C)C(OCc2cn(CCOc3ccc4ccc(=O)oc4c3)nn2)C1 (stereo not shown) [Compound 36, 7-(2-(4-(((2-isopropyl-5-methylcyclohexyl)oxy)methyl)-1H-1,2,3-triazol-1-yl)ethoxy)-2H-chromen-2-one]	38.2 ± 12.1	–	–	–	–	122 to 123	–
Cc1ccc(C(C)C)cc1OCc1cn(CCCOc2ccc3ccc(=O)oc3c2)nn1 [Compound 21, 7-(3-(4-((5-Isopropyl-2-methylphenoxy)methyl)-1H-1,2,3-triazol-1-yl)propoxy)-2H-chromen-2-one]	39.4 ± 15.8	–	–	–	–	–	–
Cc1ccc(C(C)C)cc1OCCCOc1ccc2ccc(=O)oc2c1 [Compound 53, 7-(3-(5-Isopropyl-2-methylphenoxy)propoxy)-2H-chromen-2-one]	> 80	30.8 ± 9.23	> 200	> 80	0.303	–	–
C=CCc1ccc(OCc2cn(CCCCCCOc3ccc4ccc(=O)oc4c3)nn2)c(OC)c1 [Compound 31, 7-((6-(4-((4-Allyl-2-methoxyphenoxy)methyl)-1H-1,2,3-triazol-1-yl)hexyl)oxy)-2H-chromen-2-one]	45.2 ± 13.1	16.8 ± 9.71	> 200	15.2 ± 1.06	–	–	–
Cc1ccc(C(C)C)c(OCc2cn(CCCCCCOc3ccc4ccc(=O)oc4c3)nn2)c1 [Compound 15, 7-((6-(4-((2-Isopropyl-5-methylphenoxy)methyl)-1H-1,2,3-triazol-1-yl)hexyl)oxy)-2H-chromen-2-one]	30.1 ± 10.2	143 ± 58.5	48.4 ± 14.4	59.7 ± 12.3	–	–	–
CC1CCC(C(C)C)C(OCCOc2ccc3ccc(=O)oc3c2)C1 (stereo not shown) [Compound 68, 7-(2-((2-Isopropyl-5-methylcyclohexyl)oxy)ethoxy)-2H-chromen-2-one]	40.7 ± 7.5	–	–	–	–	–	–
Cc1ccc(C(C)C)cc1OCCCCCCCOc1ccc2ccc(=O)oc2c1 [Compound 56, 7-((7-(5-Isopropyl-2-methylphenoxy)heptyl)oxy)-2H-chromen-2-one]	> 80	8.26 ± 1.28	24.4 ± 4.12	> 80	–	–	–
CC1CCC(C(C)C)C(OCc2cn(CCCCCCOc3ccc4ccc(=O)oc4c3)nn2)C1 (stereo not shown) [Compound 39, 7-((6-(4-(((2-Isopropyl-5-methylcyclohexyl)oxy)methyl)-1H-1,2,3-triazol-1-yl)hexyl)oxy)-2H-chromen-2-one]	65.6 ± 24.2	–	–	–	–	–	–
Cc1ccc(C(C)C)cc1OCc1cn(CCOc2ccc3ccc(=O)oc3c2)nn1 [Compound 20, 7-(2-(4-((5-Isopropyl-2-methylphenoxy)methyl)-1H-1,2,3-triazol-1-yl)ethoxy)-2H-chromen-2-one]	25.9 ± 7.94	–	–	–	–	–	–
CC1CCC(C(C)C)C(OCCCCCCOc2ccc3ccc(=O)oc3c2)C1 (stereo not shown) [Compound 71, 7-((6-((2-Isopropyl-5-methylcyclohexyl)oxy)hexyl)oxy)-2H-chromen-2-one]	18.6 ± 3.39	30.7 ± 7.04	36 ± 9.49	56.6 ± 10.5	–	–	–
Cc1ccc(C(C)C)cc1OCCCCCCOc1ccc2ccc(=O)oc2c1 [Compound 55, 7-((6-(5-Isopropyl-2-methylphenoxy)hexyl)oxy)-2H-chromen-2-one]	63.29 ± 0.57	16.4 ± 2.91	48.3 ± 14.1	> 80	0.0362	–	–
Cc1ccc(C(C)C)c(OCc2cn(CCCOc3ccc4ccc(=O)oc4c3)nn2)c1 [Compound 13, 7-(3-(4-((2-Isopropyl-5-methylphenoxy)methyl)-1H-1,2,3-triazol-1-yl)propoxy)-2H-chromen-2-one]	48.5 ± 8.73	–	–	–	–	–	–
Cc1ccc(C(C)C)cc1OCCCCCCCCCCCCOc1ccc2ccc(=O)oc2c1 [Compound 59, 7-((12-(5-Isopropyl-2-methylphenoxy)dodecyl)oxy)-2H-chromen-2-one]	> 200	–	–	–	–	58 to 59	–
Cc1ccc(C(C)C)c(OCCCCCCCOc2ccc3ccc(=O)oc3c2)c1 [Compound 48, 7-((7-(2-Isopropyl-5-methylphenoxy)heptyl)oxy)-2H-chromen-2-one]	> 200	–	–	–	0.0368	–	–
C=CCc1ccc(OCCCCOc2ccc3ccc(=O)oc3c2)c(OC)c1 [Compound 62, 7-(4-(4-Allyl-2-methoxyphenoxy)butoxy)-2H-chromen-2-one]	> 80	11.3 ± 3.61	45.5 ± 26.5	64.7 ± 20.1	0.0313	–	–

SMILES	IC50 (HT-29 cell line) [µM]	IC50 (MCF-7 cell line; Homo sapiens, MCF7, 24 h) [µM]	IC50 (PC-3 cell line) [µM]	IC50 (HEK293T cell line) [µM]	Ki (hCA IX) [µM]	melting point [°C]	IC50 (MCF-7 cell line; 24 h) [µM]
Cc1ccc(C(C)C)cc1OCCCCOc1ccc2ccc(=O)oc2c1 [Compound 54, 7-(4-(5-Isopropyl-2-methylphenoxy)butoxy)-2H-chromen-2-one]	59.8 ± 6.73	–	–	–	–	74 to 75	–
C=CCc1ccc(OCCCCCCCCCCCCOc2ccc3ccc(=O)oc3c2)c(OC)c1 [Compound 67, 7-((12-(4-Allyl-2-methoxyphenoxy)dodecyl)oxy)-2H-chromen-2-one]	> 80	–	–	–	–	–	–
Cc1ccc(C(C)C)c(OCCCCCCCCCCCCOc2ccc3ccc(=O)oc3c2)c1 [Compound 51, 7-((12-(2-Isopropyl-5-methylphenoxy)dodecyl)oxy)-2H-chromen-2-one]	> 200	19.6 ± 3.14	62.8 ± 23.7	50.1 ± 15.7	0.0383	–	–
CC1CCC(C(C)C)C(OCc2cn(CCCCCCCOc3ccc4ccc(=O)oc4c3)nn2)C1 (stereo not shown) [Compound 40, 7-((7-(4-(((2-Isopropyl-5-methylcyclohexyl)oxy)methyl)-1H-1,2,3-triazol-1-yl)heptyl)oxy)-2H-chromen-2-one]	54.8 ± 19.1	–	–	–	–	–	–
Cc1ccc(C(C)C)c(OCCCCOc2ccc3ccc(=O)oc3c2)c1 [Compound 46, 7-(4-(2-Isopropyl-5-methylphenoxy)butoxy)-2H-chromen-2-one]	> 80	> 200	> 80	> 80	0.0824	–	–
CC1CCC(C(C)C)C(OCCCCOc2ccc3ccc(=O)oc3c2)C1 (stereo not shown) [Compound 70, 7-(4-((2-Isopropyl-5-methylcyclohexyl)oxy)butoxy)-2H-chromen-2-one]	14.7 ± 2.81	7.53	24.8 ± 5.35	63.5 ± 11.4	0.142	–	4.53 ± 1.06
Cc1ccc(C(C)C)cc1OCc1cn(CCCCOc2ccc3ccc(=O)oc3c2)nn1 [Compound 22, 7-(4-(4-((5-Isopropyl-2-methylphenoxy)methyl)-1H-1,2,3-triazol-1-yl)butoxy)-2H-chromen-2-one]	37.4 ± 12.1	–	–	–	–	–	–
Cc1ccc(C(C)C)c(OCc2cn(CCOc3ccc4ccc(=O)oc4c3)nn2)c1 [Compound 12, 7-(2-(4-((2-Isopropyl-5-methylphenoxy)methyl)-1H-1,2,3-triazol-1-yl)ethoxy)-2H-chromen-2-one]	48.5 ± 9.01	45.7 ± 14.5	50.2 ± 23.7	107 ± 19.5	–	–	–
Cc1ccc(C(C)C)cc1OCCCCCCCCCOc1ccc2ccc(=O)oc2c1 [Compound 57, 7-((9-(5-Isopropyl-2-methylphenoxy)nonyl)oxy)-2H-chromen-2-one]	> 200	–	–	–	–	–	–
CC1CCC(C(C)C)C(OCCCOc2ccc3ccc(=O)oc3c2)C1 (stereo not shown) [Compound 69, 7-(3-((2-Isopropyl-5-methylcyclohexyl)oxy)propoxy)-2H-chromen-2-one]	12.1 ± 1.94	5.86 ± 1.22	41.4 ± 14.9	50 ± 8.43	0.0341	–	–
Cc1ccc(C(C)C)c(OCCCOc2ccc3ccc(=O)oc3c2)c1 [Compound 45, 7-(3-(2-Isopropyl-5-methylphenoxy)propoxy)-2H-chromen-2-one]	> 200	> 200	> 80	43.3 ± 5.43	0.192	–	–
CC1CCC(C(C)C)C(OCc2cn(CCCCCCCCCOc3ccc4ccc(=O)oc4c3)nn2)C1 (stereo not shown) [Compound 41, 7-((9-(4-(((2-Isopropyl-5-methylcyclohexyl)oxy)methyl)-1H-1,2,3-triazol-1-yl)nonyl)oxy)-2H-chromen-2-one]	44.7 ± 15.1	–	–	–	0.204	–	–
Cc1ccc(C(C)C)c(OCc2cn(CCCCCCCOc3ccc4ccc(=O)oc4c3)nn2)c1 [Compound 16, 7-((7-(4-((2-Isopropyl-5-methylphenoxy)methyl)-1H-1,2,3-triazol-1-yl)heptyl)oxy)-2H-chromen-2-one]	21.6 ± 8.31	73.1 ± 55.4	167 ± 30.1	142 ± 49.6	–	–	–
Cc1ccc(C(C)C)c(OCCCCCCCCCCOc2ccc3ccc(=O)oc3c2)c1 [Compound 50, 7-((10-(2-Isopropyl-5-methylphenoxy)decyl)oxy)-2H-chromen-2-one]	> 200	–	–	–	–	–	–
Cc1ccc(C(C)C)c(OCc2cn(CCCCCCCCCOc3ccc4ccc(=O)oc4c3)nn2)c1 [Compound 17, 7-((9-(4-((2-Isopropyl-5-methylphenoxy)methyl)-1H-1,2,3-triazol-1-yl)nonyl)oxy)-2H-chromen-2-one]	28.5 ± 8.9	> 200	12.5 ± 4.4	> 200	0.213	–	–
CC1CCC(C(C)C)C(OCc2cn(CCCCCCCCCCOc3ccc4ccc(=O)oc4c3)nn2)C1 (stereo not shown) [Compound 42, 7-((10-(4-(((2-Isopropyl-5-methylcyclohexyl)oxy)methyl)-1H-1,2,3-triazol-1-yl)decyl)oxy)-2H-chromen-2-one]	32.9 ± 8.54	> 200	39.7 ± 17	83.2 ± 28.1	0.0019	–	–
Cc1ccc(C(C)C)c(OCCCCCCOc2ccc3ccc(=O)oc3c2)c1 [Compound 47, 7-((6-(2-Isopropyl-5-methylphenoxy)hexyl)oxy)-2H-chromen-2-one]	> 80	18.4 ± 2.63	29.1 ± 6.02	> 80	0.117	–	–
